In PubChem BioAssay AID2060889 (Molecular Pharmacology Branch, DTP, NCI, 2025):

Tested on: LG0567-F671-PDC complex spheroids viability
Assay: Anticancer human tumor LG0567-F671-PDC patient-derived lung adenocarcinoma cell line growth inhibition [RAS]
Details: for IC50: curve of first compound; for viability, T/C: stronger effect = lower value; active = viability on the fitted dose curve at most 10% of control; inactive = the rest
Text: RAS pathway inhibitors in Combinations in Complex Spheroids
A high-throughput screen of multi-cell type tumor spheroids was designed to identify active combinations of RAS pathway inhibitors and targeted small molecules. Complex spheroids include a stromal component modeled by human endothelial cells (HUVEC) and fibroblasts modeled by human mesenchymal stem cells (MSCs). The concentration ranges selected for each drug and investigational agent were based upon clinically achievable concentrations if the clinical Cmax of the agent was known.
Compounds. The drugs and investigational agents: abemaciclib (NSC768073), cobimetinib (NSC768068), divarasib (GDC6063, NSC841802), docetaxel (NSC628503), GDC-1971 (RLY-1971, NSC841576), gemcitabine (NSC613327), inavolisib (NSC800729), ipatasertib (NSC767898), KB-0742 (NSC834161), MRTX-1133 (NSC836407), osimertinib (NSC779217), RMC-4630 (NSC839698), RMC-6236 (NSC851965), RMC-6291 (NSC852671), Ro-3306 (NSC812927), sapanisertib (NSC764658), SN-38 (NSC673596), staurosporine (NSC755774), SY5609 (NSC837396), and tovorafenib (DAY101, NSC766906), were obtained from the National Cancer Institute (NCI) Developmental Therapeutics Program Chemical Repository. The FDA-approved anticancer drug set is available from the NCI Developmental Therapeutics Program. […] The stock solutions were prepared in dimethyl sulfoxide (DMSO, Sigma-Aldrich, St. Louis, MO, cat. D2650) at 800-fold the tested concentration and stored at -70 degrees C prior to their use. All drugs and investigational agents were tested over a range starting from a high concentration at or near the clinical Cmax and decreasing in half-log increments. If the clinical Cmax for an agent had not been determined, the highest concentration tested was 10 microM.
Cell Culture. All cells were maintained in an incubator at 37 degrees C and 5% CO2 with 95% humidity. The PDC lines were cultured according to standard operating procedures established by the NCI PDMR. All PDCs were thawed and cultured in Matrigel-coated flasks prepared with a working solution of 1X Ham's F-12 nutrient mix, without supplementation (Invitrogen, Waltham, MA, cat. 11765054), 100 U/mL penicillin-streptomycin (Invitrogen, cat. 15140122), and 2.5% Matrigel (Corning Inc., Corning, NY, cat. 354248) for the first three passages. The 362531-283-R-J2-PDC and 782815-120-R-J1-PDC lines were cultured in 6C/Colon 1B media, which includes advanced DMEM/F-12 (Thermo Fisher Scientific, cat. 12634028), 10 mM HEPES (Thermo Fisher Scientific, cat. 15630080), 1X GlutaMAX supplement (Thermo Fisher Scientific, cat. 35050061), 0.1 mg/mL primocin (InvivoGen, San Diego, CA, cat. ant-pm-2), 10% defined fetal bovine serum, heat inactivated (HyClone Laboratories Inc., Logan, UT, cat. SH30070.03HI), 50% L-WRN conditioned media (ATCC, cat. CRL-3276), 1.25 mM N-Acetyl-L-cysteine (Sigma-Aldrich, cat. A9165), 10 mM nicotinamide (Sigma-Aldrich, cat. N0636), 1X B-27 supplement (Thermo Fisher Scientific, cat. 17504044), 1X N-2 supplement (Thermo Fisher Scientific, cat. 17502048), 50 ng/mL human EGF (Thermo Fisher Scientific, cat. PHG0311), and 10 microM Y-27632 dihydrochloride (Tocris Bioscience, cat. 1254). The K12877-001-R-J1-PDC line was cultured in 6I media, which includes all 6C/Colon 1B media plus 10 ng/mL human FGF-10 (PeproTech, cat. 100-26), 1 ng/mL human FGF-2 (PeproTech, cat. 100-18B), 1 µM prostaglandin E2 (Tocris Bioscience, cat. 2296), […] hydrocortisone (Sigma-Aldrich, cat. H4001), and […] bovine insulin (Sigma-Aldrich, cat. I6634). The K86415-001-R-J1-PDC line was cultured in 6D media, which includes all 6C/Colon 1B media components minus the L-WRN conditioned media. The 485176-168-R4-J1-PDC was cultured in PANC media, which includes all 6C/Colon 1B media plus 100 ng/mL human FGF-10 (PeproTech, cat. 100-26), 500 nM SB-431542 (Selleckchem, cat. S1067), and 10 nM gastrin (Tocris Bioscience, cat. 3006). […]

[1] = second compound 0.000949 µM, first compound 0.0316 µM
[2] = second compound 0.000949 µM, first compound 0.1 µM
[3] = second compound 0.000949 µM, first compound 0.316 µM
[4] = second compound 0.000949 µM, first compound 1 µM
[5] = second compound 0.000949 µM, first compound 3.16 µM
[6] = second compound 0.000949 µM, first compound 10 µM
[7] = second compound 0.003 µM, first compound 0.0316 µM
[8] = second compound 0.003 µM, first compound 0.1 µM
[9] = second compound 0.003 µM, first compound 0.316 µM
[10] = second compound 0.003 µM, first compound 1 µM
[11] = second compound 0.003 µM, first compound 3.16 µM
[12] = second compound 0.003 µM, first compound 10 µM
[13] = second compound 0.00949 µM, first compound 0.0316 µM
[14] = second compound 0.00949 µM, first compound 0.1 µM
[15] = second compound 0.00949 µM, first compound 0.316 µM
[16] = second compound 0.00949 µM, first compound 1 µM
[17] = second compound 0.00949 µM, first compound 3.16 µM
[18] = second compound 0.00949 µM, first compound 10 µM
[19] = second compound 0.03 µM, first compound 0.0316 µM
[20] = second compound 0.03 µM, first compound 0.1 µM
[21] = second compound 0.03 µM, first compound 0.316 µM
[22] = second compound 0.03 µM, first compound 1 µM
[23] = second compound 0.03 µM, first compound 3.16 µM
[24] = second compound 0.03 µM, first compound 10 µM
[25] = second compound 0.0949 µM, first compound 0.0316 µM
[26] = second compound 0.0949 µM, first compound 0.1 µM
[27] = second compound 0.0949 µM, first compound 0.316 µM
[28] = second compound 0.0949 µM, first compound 1 µM
[29] = second compound 0.0949 µM, first compound 3.16 µM
[30] = second compound 0.0949 µM, first compound 10 µM
[31] = second compound 0.3 µM, first compound 0.0316 µM
[32] = second compound 0.3 µM, first compound 0.1 µM
[33] = second compound 0.3 µM, first compound 0.316 µM
[34] = second compound 0.3 µM, first compound 1 µM
[35] = second compound 0.3 µM, first compound 3.16 µM
[36] = second compound 0.3 µM, first compound 10 µM
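Also: spheroids exposed to compound for seven days before readout.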
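For IC50 in this document: luminescence signal used as a proxy for viable cells.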

CC1(O)CCCC1n1c(=O)c(C(F)F)cc2cnc(NC3CCN(S(C)(=O)=O)CC3)nc21 (centres undefined) + CCn1c(-c2cccnc2C(C)OC)c2c3cc(ccc31)N1CCOC(CC(NC(=O)C(C(C)C)N(C)C(=O)C3(F)CCN(C(=O)C#CC(C)(C)N(C)C)CC3)C(=O)N3CCCC(N3)C(=O)OCC(C)(C)C2)C1
< 31.6 nM: IC50 (second compound 0.000949 µM) | IC50 (second compound 0.003 µM) | IC50 (second compound 0.00949 µM) | IC50 (second compound 0.03 µM) | IC50 (second compound 0.0949 µM) | IC50 (second compound 0.3 µM)
inactive: viability, T/C [1] 17.6% | viability, T/C [2] 18.2% | viability, T/C [3] 18.2% | viability, T/C [4] 21.6% | viability, T/C [5] 22.6% | viability, T/C [6] 18% | viability, T/C [7] 17.6% | viability, T/C [8] 16.9% | viability, T/C [9] 18.5% | viability, T/C [10] 21.3% | viability, T/C [11] 24.5% | viability, T/C [12] 16.8% | viability, T/C [13] 15.8% | viability, T/C [14] 16.7% | viability, T/C [15] 20.2% | viability, T/C [16] 20.4% | viability, T/C [17] 20.7% | viability, T/C [18] 16.2% | viability, T/C [19] 14.5% | viability, T/C [20] 15.2% | viability, T/C [21] 19.5% | viability, T/C [22] 19.1% | viability, T/C [23] 20.2% | viability, T/C [24] 16.3% | viability, T/C [25] 13.5% | viability, T/C [26] 15.5% | viability, T/C [27] 16.1% | viability, T/C [28] 17.1% | viability, T/C [29] 18.6% | viability, T/C [30] 15.6% | viability, T/C [31] 11.8% | viability, T/C [32] 12.4% | viability, T/C [33] 14.1% | viability, T/C [34] 16.2% | viability, T/C [35] 17.4% | viability, T/C [36] 11.8%

CC(Nc1ccc2c(c1)OCCn1cc(N3C(=O)OCC3C(F)F)nc1-2)C(N)=O (centres undefined) + CCn1c(-c2cc(N3CCN(C)CC3)cnc2C(C)OC)c2c3cc(ccc31)-c1csc(n1)CC(NC(=O)C1CC1C)C(=O)N1CCCC(N1)C(=O)OCC(C)(C)C2
< 31.6 nM: IC50 (second compound 0.000949 µM) | IC50 (second compound 0.003 µM) | IC50 (second compound 0.00949 µM) | IC50 (second compound 0.03 µM) | IC50 (second compound 0.0949 µM) | IC50 (second compound 0.3 µM)
inactive: viability, T/C [1] 19.3% | viability, T/C [2] 12.9%
active: viability, T/C [3] 10.5% | viability, T/C [4] 7.84% | viability, T/C [5] 7.19% | viability, T/C [6] 7.14% | viability, T/C [7] 7.68% | viability, T/C [8] 7.52% | viability, T/C [9] 5.35% | viability, T/C [10] 3.88% | viability, T/C [11] 3.53% | viability, T/C [12] 3.37% | viability, T/C [13] 5.03% | viability, T/C [14] 3.43% | viability, T/C [15] 3.46% | viability, T/C [16] 2.91% | viability, T/C [17] 1.87% | viability, T/C [18] 1.74% | viability, T/C [19] 3.07% | viability, T/C [20] 2.58% | viability, T/C [21] 1.57% | viability, T/C [22] 1.37% | viability, T/C [23] 1.64% | viability, T/C [24] 1.25% | viability, T/C [25] 2.35% | viability, T/C [26] 2.02% | viability, T/C [27] 1.42% | viability, T/C [28] 1.29% | viability, T/C [29] 1.01% | viability, T/C [30] 0.89% | viability, T/C [31] 2.27% | viability, T/C [32] 1.33% | viability, T/C [33] 1.26% | viability, T/C [34] 1.33% | viability, T/C [35] 1.18% | viability, T/C [36] 0.92%
